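The compound was tested at five concentrations on cells cultured in 96-well plates, with a 48-hour exposure period. Abbreviation: GI50, concentration required for 50% inhibition of growth. TGI denotes the concentration required for complete inhibition of growth.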
Assays:
Assay in all cases: growth of human tumour cells (NCI), 48 h
[1] = tested on: TK-10 renal
[2] = tested on: U251 CNS
[3] = tested on: RPMI-8226 leukemia
[4] = tested on: DU-145 prostate
[5] = tested on: NCI-H226 lung
[6] = tested on: HT29 colon
[7] = tested on: NCI-H522 lung
[8] = tested on: SF-295 CNS
[9] = tested on: LOX IMVI melanoma
[10] = tested on: HCC-2998 colon
[11] = tested on: HOP-92 NSCLC
[12] = tested on: KM12 colon
[13] = tested on: 786-0 renal
[14] = tested on: OVCAR-4 ovarian
[15] = tested on: HCT-116 colon
[16] = tested on: MOLT-4 leukemia
[17] = tested on: M14 melanoma
[18] = tested on: NCI-H23 lung
[19] = tested on: PC-3 prostate
[20] = tested on: UACC-62 melanoma
[21] = tested on: HS 578T breast
[22] = tested on: MDA-MB-435
[23] = tested on: OVCAR-8 ovarian
[24] = tested on: CCRF-CEM leukemia
[25] = tested on: MDA-MB-231 breast
[26] = tested on: HOP-62 NSCLC
[27] = tested on: RXF 393 renal
[28] = tested on: COLO 205 colon
[29] = tested on: MALME-3M melanoma
[30] = tested on: SW-620 colon
[31] = tested on: SK-MEL-5 melanoma
[32] = tested on: SNB-75 CNS
[33] = tested on: NCI/ADR-RES ovarian
[34] = tested on: SNB-19 CNS
[35] = tested on: UACC-257 melanoma
[36] = tested on: NCI-H460 lung
[37] = tested on: A549 NSCLC
[38] = tested on: K-562 leukemia
[39] = tested on: EKVX NSCLC
[40] = tested on: SF-268 CNS
[41] = tested on: SK-MEL-2 melanoma
[42] = tested on: MCF7 breast
[43] = tested on: HCT-15 colon
[44] = tested on: HL-60(TB) leukemia
[45] = tested on: OVCAR-3 ovarian
[46] = tested on: A498 renal
[47] = tested on: CAKI-1 renal
[48] = tested on: SK-MEL-28 melanoma
[49] = tested on: SK-OV-3 ovarian
[50] = tested on: T-47D breast
[51] = tested on: UO-31 renal
[52] = tested on: BT-549 breast
[53] = tested on: OVCAR-5 ovarian
[54] = tested on: SN12C renal
[55] = tested on: MDA-MB-468 breast
[56] = tested on: ACHN renal
[57] = tested on: SF-539 CNS
[58] = tested on: IGROV1 ovarian

## COc1ccc2[nH]c(O)c(N=NC(=O)Cn3c(-c4ccccc4)nc4cc(C)ccc43)c2c1
[1]
  GI50: 29 µM
  TGI: 77.3 µM
[2]
  GI50: 17 µM
  TGI: 36.2 µM
[3]
  GI50: 9.97 µM
  TGI: 35.9 µM
[4]
  GI50: 19.9 µM
  TGI: 44.4 µM
[5]
  GI50: 14 µM
  TGI: 30.7 µM
[6]
  GI50: 21.5 µM
  TGI: 55.5 µM
[7]
  GI50: 15.2 µM
  TGI: 32.4 µM
[8]
  GI50: 14.3 µM
  TGI: 29 µM
[9]
  GI50: 14.9 µM
  TGI: 28.3 µM
[10]
  GI50: 17.5 µM
  TGI: 31.6 µM
[11]
  GI50: 3.3 µM
  TGI: 18 µM
[12]
  GI50: 18.7 µM
  TGI: 42.5 µM
[13]
  GI50: 16 µM
  TGI: 30.2 µM
[14]
  GI50: 15 µM
  TGI: 36.9 µM
[15]
  GI50: 14 µM
  TGI: 28 µM
[16]
  GI50: 10.6 µM
  TGI: 37.2 µM
[17]
  GI50: 15.7 µM
  TGI: 31.2 µM
[18]
  GI50: 16.7 µM
  TGI: 31.8 µM
[19]
  GI50: 10.7 µM
  TGI: 26.5 µM
[20]
  GI50: 12.4 µM
  TGI: 25.5 µM
[21]
  GI50: 13.2 µM
  TGI: 46.1 µM
[22]
  GI50: 16.7 µM
  TGI: 34.7 µM
[23]
  GI50: 15.7 µM
  TGI: 37.1 µM
[24]
  GI50: 17.3 µM
  TGI: 43.6 µM
[25]
  GI50: 13.1 µM
  TGI: 26.4 µM
[26]
  GI50: 16 µM
  TGI: 35.6 µM
[27]
  GI50: 2370 nM
  TGI: 12.6 µM
[28]
  GI50: 17.5 µM
  TGI: 35.1 µM
[29]
  GI50: 14.5 µM
  TGI: 28.8 µM
[30]
  GI50: 20.1 µM
  TGI: 47.6 µM
[31]
  GI50: 15 µM
  TGI: 28.5 µM
[32]
  GI50: 9.86 µM
  TGI: 24.2 µM
[33]
  GI50: 16.8 µM
  TGI: 34.5 µM
[34]
  GI50: 16.2 µM
  TGI: 32.6 µM
[35]
  GI50: 15.9 µM
  TGI: 31.7 µM
[36]
  GI50: 19.3 µM
  TGI: 42.3 µM
[37]
  GI50: 16.6 µM
  TGI: 36.7 µM
[38]
  GI50: 18 µM
  TGI: 62.4 µM
[39]
  GI50: 11 µM
  TGI: 24.6 µM
[40]
  GI50: 18.5 µM
  TGI: 64.2 µM
[41]
  GI50: 14.9 µM
  TGI: 30.4 µM
[42]
  GI50: 13.5 µM
  TGI: 31.6 µM
[43]
  GI50: 15.5 µM
  TGI: 31.1 µM
[44]
  GI50: 17.5 µM
  TGI: 42.3 µM
[45]
  GI50: 17.5 µM
  TGI: 42.9 µM
[46]
  GI50: 17.1 µM
  TGI: 32.6 µM
[47]
  GI50: 12.6 µM
  TGI: 27 µM
[48]
  GI50: 16.5 µM
  TGI: 30.9 µM
[49]
  GI50: 15.8 µM
  TGI: 31.3 µM
[50]
  GI50: 7.33 µM
  TGI: 28.1 µM
[51]
  GI50: 7.52 µM
  TGI: 23.7 µM
[52]
  GI50: 13.4 µM
  TGI: 27.9 µM
[53]
  GI50: 14.9 µM
  TGI: 28.6 µM
[54]
  GI50: 13.5 µM
  TGI: 26.9 µM
[55]
  GI50: 14.9 µM
  TGI: 30.2 µM
[56]
  GI50: 14.5 µM
  TGI: 27.5 µM
[57]
  GI50: 14.9 µM
  TGI: 28.5 µM
[58]
  GI50: 14.7 µM
  TGI: 29.6 µM

From PubChem BioAssay (NCI)
